Assay results as given in ChEMBL document CHEMBL1148800, “Novel 2,7-dialkyl-substituted 5(S)-amino-4(S)-hydroxy-8-phenyl-octanecarboxamide transition state peptidomimetics are potent and orally active inhibitors of human renin” (J Med Chem, 2007).

Assays:
Callithrix jacchus [1] = species on record: Callithrix jacchus; assay: animal or person; conditions: Plasma, po, 6 h, read-out: Inhibition
Description: Inhibition of plasma renin activity in sodium depleted marmoset at 10 mg/kg, po after 6 hrs

Callithrix jacchus [2] = species on record: Callithrix jacchus; assay: animal or person; conditions: Plasma, po, 6 h, read-out: Inhibition; remark: listed apart in the source
Description: Inhibition of plasma renin activity in sodium depleted marmoset at 3 mg/kg, po after 6 hrs

| Structure (SMILES) | inhibition in vivo at 10 mg/kg (Callithrix jacchus [1]) [%] | inhibition in vivo at 3 mg/kg (Callithrix jacchus [2]) [%] |
| --- | --- | --- |
| COCCCOc1cc(C[C@@H](C[C@H](N)[C@@H](O)C[C@@H](C)C(=O)NCC(C)(C)N2CCOCC2)C(C)C)ccc1OC | 88 |  |
| COCCCOc1cc(C[C@@H](C[C@H](N)[C@@H](O)C[C@@H](C)C(=O)NCCN2CCSCC2)C(C)C)ccc1OC |  | 28 |
| COCCCOc1cc(C[C@@H](C[C@H](N)[C@@H](O)C[C@@H](C)C(=O)NCCCC(N)=O)C(C)C)ccc1OC |  | 95 |
